Test results reported in US8677934B2 (Yissum Research Development Company of the Hebrew …, priority 2007, dated 2014).
Each block holds one molecule with its values, some of them ahead of it. Positions of bridges follow the written chain, without caps; N, C: chain ends. Residues, ends and D or L forms follow the SMILES beside them.

Experiments:
D. melanogaster females [1] = experiment: Receptivity assay, peptide expressed in male accessory glands and transferred to the female during mating; type: in vivo, Drosophila melanogaster; settings: transgene received from male seminal fluid, FIG. 14
Text: Transgenic flies. The GAL4-UAS system, first described by Brand and Perrimon (1993), was used for transgenesis of D. melanogaster. Briefly, T-SP was cloned into the pUAST vector, which bears an upstream activating sequence (UAS) site able to bind to the yeast transcription factor GAL4. Two separate fly lines are reared, the one (UAS) bearing the gene(s) to be transcribed and a chosen promoter (target line), the second being the GAL4 activating line. By select and controlled crossing of these two parent lines, the transgene, in this case T-SP or its amino-acid substituted homolog, is activated and expressed in the filial generation, at different times during development, and/or in select tissues, dependent on the promoter and inducer utilized. In this case, the GAL4 gene is under the control of the accessory gland specific promoter 26Aa that is induced only in the accessory glands (Park et al., 1994).
RT-PCR. Expression was induced by a heat-inducible GAL4 driver (hsp70-GAL4), or with the Acp26Aa GAL4 driver (Acp26Aa-GAL4) which, restricts expression to the male accessory glands exclusively. To verify the expression of T-SP, groups of 10 heat-shocked females were taken at different time post-heat-shock, placed in Eppendorf tubes, quick-frozen in liquid nitrogen and kept at −80° C. until subject to RNA extraction. mRNA extraction was performed with Dynabeads (Invitrogen) according to the manufacturer's instructions.
Receptivity assay. Single unmated females of each homogenous UAS-T-SP transgene (see also Table 2) were placed in a food vial with single unmated 3-5-day-old males of the same UAS-T-SP transgene. Two parameters were monitored for one hour: (i) Receptivity rate—the number of female that mated; (ii) courtship behavior—whether or not female performed a rejection behaviors (kicking and extruding their ovipositor). […] For that a group of 10 females were isolated from each group and their behavior was inspected. […] These females will be exposed in the next day to newly unmated 3-5-day-old males (see section developing bioassay for additional details). […]

[2] = type: in vitro ADME, Drosophila melanogaster
Experimental: Liquid Chromatography—Mass Spectrometery (LC-MS/MS). Hemolymph was prepared as described in section 2.3, except that 50 D. melanogaster female-equivalents of unmated or mated female flies were used for 30 min incubations with 20 μg of T-SP. Reactions were terminated and processed as detailed in section 2.5. The supernatants of the methanol precipitations were lyophilized and resuspended by sonication in 100 μl of loading buffer (5% acetonitrile, 0.1% formic acid) and analyzed by LC-MS/MS. Briefly, the peptide mixtures were run in an Agilent 1100 series micro-flow HPLC system (Agilent Technologies, Inc., Palo Alto, Calif.) coupled to an Esquire-HCT ion trap mass spectrometer through the online nano-ESI ion source (Broker Daltonik GmbH, Bremen). Peptides were separated on a Protein-15-C18-150 microbore column (Micro-Tech Scientific, Cousteau, Court Vista, Calif.) using a 5% to 30% gradient of acetonitrile in 0.1% formic acid for 37 min at […], at a flow rate of 1 μl/min. MS and MS2 spectra were acquired in a data-driven way with parameters optimized for peptide mixture analysis. The resulting MS/MS chromatograms were processed by the DataAnalysis 3.1 application and further analysed with BioTools 2.2 (Broker Daltonik GmbH, Bremen) and MASCOT (Matrix Science), assuming the unknown specificity of the hemolymph protease. A 95% confidence interval was set as threshold. […]

D. melanogaster females [3] = experiment: Receptivity assay, ectopic expression in unmated females by heat-inducible GAL4 driver (hsp70-GAL4); type: in vivo, Drosophila melanogaster; settings: for duration of rejection behavior (kicking and extruding ovipositor): days examined
Experimental: Heat shock. Transgenic unmated females carrying the mutated T-SP (hsp70-GAL4; UAS-T-SPX) were placed in empty vials supplemented with moisture filter paper. Files were placed in water bath and heated gradually from 25 to 37° C. Flies were kept at this temperature for 1 hr thereafter returned to room temperature for one hour for recovery. Recovered heat-shocked flies were placed in food vials and kept at 25° C. until used.
Receptivity assay. Single unmated females of each homogenous UAS-T-SP transgene (see also Table 2) were placed in a food vial with single unmated 3-5-day-old males of the same UAS-T-SP transgene. Two parameters were monitored for one hour: (i) Receptivity rate—the number of female that mated; (ii) courtship behavior—whether or not female performed a rejection behaviors (kicking and extruding their ovipositor). […] For that a group of 10 females were isolated from each group and their behavior was inspected. […] These females will be exposed in the next day to newly unmated 3-5-day-old males (see section developing bioassay for additional details).
To examine the effect of the modified T-SP on female receptivity we first developed a sensitive bioassay that provided optimal conditions to test the transgenes. […] We examined two independent lines to determine the effect of exposure to one or two males and whether a window of one hour would be sensitive enough to detect changes in female behavior. Four-day-old unmated females were placed with one or two males in a fresh food vial and their behavior was documented. Mated females were separated from males and left in the food vials. Twenty four hours later the females were re-exposed to unmated 3-day-old males and inspected for mating encounter and courting behavior for 1 hour. […] About 50% of the females re-mated after 4 to 5 days (FIGS. 7A-B).
Since a change in the willingness of the female to mate is expressed in their behavior, we next developed a qualitative behavioral bioassay. Mated females reject the courting males by extruding their ovipositor toward the male and/or by kicking the courting male. Theses behaviors are not seen in unmated females. We set up a system in which we inspected whether or not the female kicks the male and extrudes her ovipositor toward the male (see material and methods), both of which are predictors of female receptivity status.

[4] = system: trypsin activity of mated female hemolymph; experiment: Trypsin inhibition assay: cleavage of N-Bnz-R-pna by mated female hemolymph; type: biochemical, Drosophila melanogaster; settings: 20 min pre-incubation, with DTT
Experimental: Hemolymph sample preparation. Hemolymph from batches of 250 unmated or mated females was extracted 4 days after eclosion as in Lung and Wolfner (1999). Briefly, groups of 5 flies, punctured in the prothorax, were placed head down in chilled Eppendorf tubes (0.5 ml tube pierced in the bottom and inserted into intact 1.5 ml tubes) and centrifuged at 4° C. Tubes were inspected for presence of fat body. Ten μl of 100 mM Tris buffer, pH 8.0, was added to the first tube, and then the collected hemolymph plus Tris from tube 1 was transferred from this tube to the next tube and so on, in to pool hemolymph extracted from unmated or mated female flies.
Protease and inhibition assays. Protease activity in D. melanogaster female hemolymph was assayed using chromogenic substrates. […]
Commercial enzymes (response controls of the specific reaction mixture) were dissolved in 100 mM Tris buffer, pH 8.0, at a concentration of 5 μg/μl. […] Activity was recorded as increase in absorbance, due to the release of 4-nitroaniline, as measured using an ELISA reader with 405 nm filter in an ELISA Plate Reader (ELx800, Bio-Tek Instruments). Values are relative absorbance readings, obtained with equal fly-equivalents of hemolymph as source of protease. […] Hemolymph protein content was measured spectroscopically at 280 nm, and was 0.5-1 μg per female. […]

[5] = system: CA of young unmated female C. capitata; experiment: In-vitro synthesis of JHB3 by the corpus allatum; design: species or system Ceratitis capitata; settings: DrmSP with its N-terminal motif
[6] = mated female hemolymph (50 D. melanogaster female-equivalents); settings: 37° C., up to 40 min
[7] = hemolymph extracted from 4-days old mated females, in 100 mM Tris buffer, pH 8.0; settings: D. melanogaster, 37° C., up to 60 min
Elastase = Elastase from porcine pancreas in 100 mM Tris buffer, pH 8.0; settings: 37° C., up to 60 min
[8] = hsp70-GAL4 driver, FIG. 10, wild-type threshold 4-5 days
[9] = other independent lines, FIG. 11, n=20

- number of different fragments yielded [2]: 11
- number of fragments obtained [2]: five
Molecule: CC[C@H](C)[C@H](NC(=O)[C@@H]1CCCN1C(=O)[C@H](Cc1ccccc1)NC(=O)[C@H](CCCCN)NC(=O)[C@@H](NC(=O)[C@@H]1CCCN1C(=O)[C@@H](N)CCCCN)[C@@H](C)O)C(=O)N1CCC[C@H]1C(=O)N[C@@H](CO)C(=O)N1CCC[C@H]1C(=O)N[C@@H](CC(N)=O)C(=O)N1CCC[C@H]1C(=O)N[C@@H](CCCNC(=N)N)C(=O)N[C@@H](CC(=O)O)C(=O)N[C@@H](CCCCN)C(=O)N[C@@H](Cc1c[nH]c2ccccc12)C(=O)N[C@H]1CSSC[C@@H](C(=O)O)NC(=O)[C@H](CCCNC(=N)N)NC(=O)CNC(=O)CNC(=O)[C@H](Cc2c[nH]c3ccccc23)NC(=O)[C@H](C)NC(=O)[C@@H]2CCCN2C(=O)CNC(=O)[C@H](CC(C)C)NC(=O)[C@H](CC(N)=O)NC(=O)[C@H](CC(C)C)NC(=O)[C@H](CCCNC(=N)N)NC1=O [T-SP] (H-KPTKFPIPSPNPRDKWCRLNLGPAWGGRC-OH; disulfide 17-29; N-terminus and C-terminus assumed)
- time at which females commenced re-mating after the first mating (D. melanogaster females [1]): three
- duration of induced female non-receptivity (D. melanogaster females [3]; [8]): 8 days
- duration of rejection behavior (kicking and extruding ovipositor) (D. melanogaster females [3]; hsp70-GAL4 driver): 8 days
- duration of induced female non-receptivity (D. melanogaster females [3]; [9]): 8 days

Molecule: Cc1ccc(S(=O)(=O)N[C@@H](CCCCN)C(=O)CCl)cc1.Cl [TLCK, Na-p-Tosyl-L-lysine chloromethyl ketone hydrochloride]
- reduced cleavage of N-Bnz-R-pna ([4]; TLCK 1 mM final): 40%

Molecule: DrmSP: Drosophila melanogaster Sex Peptide; mature form a linear peptide of 36 amino acids with an S-S bridge
- effect on in-vitro synthesis of JHB3 [5]: depresses

Molecule: KPTKFPIPSPNPRDKWCRLNLGPAWGGRC
- cleaved bond [6]: R25-L26, major, 30 min

Molecule: N-Succinyl-Ala-Ala-Ala-pna
- not cleaved [7]: elastase activity was not observed

Molecule: N-Succinyl-Ala-Ala-Pro-Ile-pna
- cleaved bond [7]: I-pna

Molecule: N-Succinyl-Ala-Ala-Pro-Leu-pna
- cleaved bond [7]: L-pna

- cleaved bond (Elastase): V-pna
Molecule: N-Succinyl-Ala-Ala-Val-pna
- cleaved bond [7]: V-pna

Molecule: T-SPQ: T-SP with arginine at position 25 substituted with glutamine, KPTKFPIPSPNPRDKWCQLNLGPAWGGRC (SEQ ID NO: 12); expressed transgenically
- percentage of re-mating compared with T-SP (D. melanogaster females [1]): lower percentages
- time at which females commenced re-mating after the first mating (D. melanogaster females [1]): 5 days
- duration of induced female non-receptivity (D. melanogaster females [3]; [8]): 8 days
- duration of rejection behavior (kicking and extruding ovipositor) (D. melanogaster females [3]; hsp70-GAL4 driver): 8 days
- duration of induced female non-receptivity (D. melanogaster females [3]; [9]): 8 days

Molecule: Z-Gly-Gly-Leu-p-Nitroanilide
- not cleaved [7]: Neither chymotrypsin nor subtilisin activity were evident

B1: Bowman-Birk inhibitor (protein)
chain: DDESSKPCCDQCACTKSNPPQCRCSDMRLNSCHSACKSCICALSYPAQCFCVDITDFCYEPCKPSEDDKEN
- reduced cleavage of N-Bnz-R-pna ([4]; BBI 5 μM final): 78%
